Data from patent US20260258025A1, “INHIBITORS OF TDP-43 AND TAU AGGREGATION” (Aquinnah Pharmaceuticals, inc., priority 2023, published 2026).

System: tau stress granules
Assay: SY5Y-tT1 tau arsenite assay (tau stress granules per cell)
Assay type: cell-based
Details: SY5Y-tT1 cells, 2 hours compound, 90 minutes arsenite, 50% reduction of granules per cell, read-out: IC50, Inhibitor Activity of Tau Stress Granules
Experimental: Example 91: In Vitro Efficacy Assay of Exemplary Compounds—SY5Y-tT1 Tau Arsenite/Thapsigargin Assay
• Before harvesting cells—checked to see if cells are ~80% confluency in their flask • 1. Aspirated growth media from flask. • 2. Added 4 mL of (0.25%) trypsin-EDTA (REF: 25200-056) • 3. Placed in 37° C. incubator for 5 minutes. • 4. Removed from incubator and added 11 mL growth media, washing any remaining cells adhered to the bottom of the flask. • 5. Transferred cell containing media to a 50 mL conical tube and spun for 5 minutes at 800 rpm. • 6. Aspirated supernatant and added 5 mL of growth media to cell pellet, triturating to make a homogenous cell solution. • 7. After counting cells, followed one of these plating paradigms: • (A) If treating with arsenite, plated cells at […] with tetracycline solution (5 mg/mL) added to cell solution at 1:5000 • (B) If treating with thapsigargin, plated cells at 4,000 cells/well with tetracycline solution (5 mg/mL) added to cell solution at 1:5000 • 8. Incubated at 37° C. for 48 hours.
• Solubilized all compounds to 10 mM prior to making dilution plates • 1. To a 96-well U-bottom plate (Falcon Non-Tissue Culture Treated Plates REF: 351177) added 120 μL growth media to all 96 wells, with an additional 58.2 μL to row A. • 2. Added 1.8 μL of 10 mM compound stock to wells A1-11, adding 1.8 μL of 10 mM PERKi stock (Selleck Chemistry GSK2606414 Cat No. S7307) as the control. • 3. Serially diluted 60 μL from row A down through each row, finishing with 180 μL total volume in row H. • 4. Transferred 12.5 μL of each dilution plate well to the correlating wells in cell plate, being careful not to touch cells adhered to bottom of the plate. • 5. Incubated for 2 hours.
• 1. Added 720 μL of 0.05 M sodium arsenite solution (CAS #: 7784-46-5) to 10 mL of growth media for a final concentration of […] arsenite solution, mix well. • 2. Added 12.5 μL of arsenite solution to all wells of compounds treated plate intended for arsenite treatment. • 3. Incubated at 37° C. for 90 minutes.
• Before beginning this part of the protocol: • Made 1×PBS by diluting 10× stock (10×, Phosphate buffered saline, Fisher #BP399— • 4) in sterile deionized water. • Diluted paraformaldehyde (16% Paraformaldehyde solution, Electron Microscopy Sciences #15710-S) to 4% in 1×PBS. • Diluted Hoechst stain (Life Technologies #H3570) 1:10,000 in 1×PBS (1 μL Hoechst per 10 mL 1×PBS). • Both solutions were protected from light. • 1) After compound treatment, aspirated media from cell plates and gently added in 50 μL of 4% paraformaldehyde for 10 min protected from light at room temperature. • 2) Aspirated paraformaldehyde solution and gently added 50 μL of 1:10,000 Hoechst solution to each well and incubated for 10 min protected from light at room temperature. • 3) Aspirated Hoechst solution and gently added 100 μL 1×PBS. Cover the plate with aluminum film (VWR #60941-126). • 4) Stored at 4° C. or used immediately for imaging on ThermoFisher CX7 imager.
Exemplary compounds of the disclosed herein were evaluated for efficacy for inhibitor activity of tau stress granules in the arsenite assay and quantified as drug concentration providing a 50% reduction (IC50) of granules per cell is shown in Table 4.
In Table 4 below, A indicates an IC50 (μM)<0.5 μM, B indicates an IC50 (μM) 0.5 μM to <1 μM, C indicates an IC50 (μM) 1 μM to <2 μM, and D indicates an IC50 (μM) 2 μM to <6 μM.

Row | SMILES | IC50
1 | Cc1cc(-c2ccc(C3CCN(C)CC3)cc2OC(F)(F)F)sc1C(=O)N1CC[C@H](N)C1 [Compound 103, (S)-(3-aminopyrrolidin-1-yl)(3-methyl-5-(4-(1-methylpiperidin-4-yl)-2-(trifluoromethoxy)phenyl)thiophen-2-yl)methanone] | 2000 to 6000 nM
2 | Cc1cc(-c2ccc(C3CCN(C)CC3)cn2)sc1C(=O)N1CC[C@H](N)C1 [Compound 104, (S)-(3-aminopyrrolidin-1-yl)(3-methyl-5-(5-(1-methylpiperidin-4-yl)pyridin-2-yl)thiophen-2-yl)methanone] | 1000 to 2000 nM
3 | Cc1cc(-c2ccc(C3CCN(C)CC3)nc2)sc1C(=O)N1CC[C@H](N)C1 [Compound 108, (S)-(3-aminopyrrolidin-1-yl)(3-methyl-5-(6-(1-methylpiperidin-4-yl)pyridin-3-yl)thiophen-2-yl)methanone] | 500 to 1000 nM
4 | C=CCc1cc(-c2ccc(C3CCN(C(C)C)CC3)cc2)sc1C(=O)N1CC[C@H](N)C1 [Compound 109, (S)-(3-allyl-5-(4-(1-isopropylpiperidin-4-yl)phenyl)thiophen-2-yl)(3-aminopyrrolidin-1-yl)methanone] | < 500 nM
5 | CCCc1cc(-c2ccc(C3CCN(C(C)C)CC3)cc2)sc1C(=O)N1CC[C@H](N)C1 [Compound 110, (S)-(3-aminopyrrolidin-1-yl)(5-(4-(1-isopropylpiperidin-4-yl)phenyl)-3-propylthiophen-2-yl)methanone] | 1000 to 2000 nM
6 | COc1cc(-c2cc(C)c(C(=O)N3CC[C@H](N)C3)s2)ccc1C1CCN(C)CC1 [Compound 111, (S)-(3-aminopyrrolidin-1-yl)(5-(3-methoxy-4-(1-methylpiperidin-4-yl)phenyl)-3-methylthiophen-2-yl)methanone] | 2000 to 6000 nM
7 | Cc1cc(-c2ccc(C3CCN(C)CC3)c(OC(F)(F)F)c2)sc1C(=O)N1CC[C@H](N)C1 [Compound 112, (S)-(3-aminopyrrolidin-1-yl)(3-methyl-5-(4-(1-methylpiperidin-4-yl)-3-(trifluoromethoxy)phenyl)thiophen-2-yl)methanone] | 2000 to 6000 nM
8 | C=Cc1cc(-c2ccc(C3CCN(C(C)C)CC3)cc2)sc1C(=O)N1CC[C@H](N)C1 [Compound 117, (S)-(3-aminopyrrolidin-1-yl)(5-(4-(1-isopropylpiperidin-4-yl)phenyl)-3-vinylthiophen-2-yl)methanone] | 1000 to 2000 nM
9 | CCc1cc(-c2ccc(C3CCN(C(C)C)CC3)cc2)sc1C(=O)N1CC[C@H](N)C1 [Compound 118, (S)-(3-aminopyrrolidin-1-yl)(3-ethyl-5-(4-(1-isopropylpiperidin-4-yl)phenyl)thiophen-2-yl)methanone] | 1000 to 2000 nM
10 | Cc1cc(-c2ccc(C3CCN(CC4CCCCO4)CC3)cc2)sc1C(=O)N1CC[C@H](N)C1 (stereo partly drawn) [Compound 119, ((S)-3-aminopyrrolidin-1-yl)(3-methyl-5-(4-(1-((tetrahydro-2H-pyran-2-yl)methyl)piperidin-4-yl)phenyl)thiophen-2-yl)methanone] | 500 to 1000 nM
11 | Cc1cc(-c2ccc(C3CCN(C)CC3)cc2Cl)sc1C(=O)N1CC[C@H](N)C1 [Compound 120, (S)-(3-aminopyrrolidin-1-yl)(5-(2-chloro-4-(1-methylpiperidin-4-yl)phenyl)-3-methylthiophen-2-yl)methanone] | 1000 to 2000 nM
12 | Cc1cc(-c2cnc(C3CCN(C)CC3)nc2)sc1C(=O)N1CC[C@H](N)C1 [Compound 124, (S)-(3-aminopyrrolidin-1-yl)(3-methyl-5-(2-(1-methylpiperidin-4-yl)pyrimidin-5-yl)thiophen-2-yl)methanone] | < 500 nM
13 | Cc1cc(-c2ccc(C3CCN(C)CC3)cc2F)sc1C(=O)N1CC[C@H](N)C1 [Compound 128, (S)-(3-aminopyrrolidin-1-yl)(5-(2-fluoro-4-(1-methylpiperidin-4-yl)phenyl)-3-methylthiophen-2-yl)methanone] | 1000 to 2000 nM
14 | Cc1cc(-c2ccc(C3CCNCC3)cc2F)sc1C(=O)N1CC[C@H](N)C1 [Compound 129, (S)-(3-aminopyrrolidin-1-yl)(5-(2-fluoro-4-(piperidin-4-yl)phenyl)-3-methylthiophen-2-yl)methanone] | 2000 to 6000 nM

Next, values leading:

Row | IC50 | SMILES
15 | 2000 to 6000 nM | Cc1cc(C2CCN(C)CC2)ccc1-c1cc(C)c(C(=O)N2CC[C@H](N)C2)s1 [Compound 134, (S)-(3-aminopyrrolidin-1-yl)(3-methyl-5-(2-methyl-4-(1-methylpiperidin-4-yl)phenyl)thiophen-2-yl)methanone]
16 | 2000 to 6000 nM | Cc1cc(-c2ccc(C3CCN(C)CC3)c(Cl)c2)sc1C(=O)N1CC[C@H](N)C1 [Compound 135, (S)-(3-aminopyrrolidin-1-yl)(5-(3-chloro-4-(1-methylpiperidin-4-yl)phenyl)-3-methylthiophen-2-yl)methanone]
17 | 500 to 1000 nM | Cc1cc(-c2ccc(C3CCNCC3)c(F)c2)sc1C(=O)N1CC[C@H](N)C1 [Compound 140, (S)-(3-aminopyrrolidin-1-yl)(5-(3-fluoro-4-(piperidin-4-yl)phenyl)-3-methylthiophen-2-yl)methanone]
18 | 2000 to 6000 nM | Cc1cc(-c2cc(C)c(C(=O)N3CC[C@H](N)C3)s2)ccc1C1CCN(C)CC1 [Compound 144, (S)-(3-aminopyrrolidin-1-yl)(3-methyl-5-(3-methyl-4-(1-methylpiperidin-4-yl)phenyl)thiophen-2-yl)methanone]
19 | < 500 nM | Cc1cc(-c2ccc(C3CCN(CC4CCOCC4)CC3)cc2)sc1C(=O)N1CC[C@H](N)C1 [Compound 147, (S)-(3-aminopyrrolidin-1-yl)(3-methyl-5-(4-(1-((tetrahydro-2H-pyran-4-yl)methyl)piperidin-4-yl)phenyl)thiophen-2-yl)methanone]
20 | 1000 to 2000 nM | Cc1cc(-c2ccc(N3CCN(C4CCCCC4)CC3)cc2)sc1C(=O)N1CC[C@H](N)C1 [Compound 148, (S)-(3-aminopyrrolidin-1-yl)(5-(4-(4-cyclohexylpiperazin-1-yl)phenyl)-3-methylthiophen-2-yl)methanone]
21 | < 500 nM | Cc1cc(-c2cc(C)c(C(=O)N3CC[C@H](N)C3)s2)ccc1C1CCNCC1 [Compound 149, (S)-(3-aminopyrrolidin-1-yl)(3-methyl-5-(3-methyl-4-(piperidin-4-yl)phenyl)thiophen-2-yl)methanone]
22 | 2000 to 6000 nM | Cc1cc(-c2ccc(N3CCN(C4CCOCC4)CC3)cc2)sc1C(=O)N1CC[C@H](N)C1 [Compound 151, (S)-(3-aminopyrrolidin-1-yl)(3-methyl-5-(4-(4-(tetrahydro-2H-pyran-4-yl)piperazin-1-yl)phenyl)thiophen-2-yl)methanone]
23 | 1000 to 2000 nM | Cc1cc(-c2ccc(N3CCN(C4CCOC4)CC3)cc2)sc1C(=O)N1CC[C@H](N)C1 (stereo partly drawn) [Compound 152, ((S)-3-aminopyrrolidin-1-yl)(3-methyl-5-(4-(4-(tetrahydrofuran-3-yl)piperazin-1-yl)phenyl)thiophen-2-yl)methanone]
24 | 1000 to 2000 nM | Cc1cc(-c2ccc(N3CCN(C4CCCC4)CC3)cc2)sc1C(=O)N1CC[C@H](N)C1 [Compound 153, (S)-(3-aminopyrrolidin-1-yl)(5-(4-(4-cyclopentylpiperazin-1-yl)phenyl)-3-methylthiophen-2-yl)methanone]
25 | 1000 to 2000 nM | Cc1cc(-c2ccc(N3CCN(C4CCC4)CC3)cc2)sc1C(=O)N1CC[C@H](N)C1 [Compound 158, (S)-(3-aminopyrrolidin-1-yl)(5-(4-(4-cyclobutylpiperazin-1-yl)phenyl)-3-methylthiophen-2-yl)methanone]
